tested on: Capan-1 cells; experiment: Inhibitory activity for Capan-1 cell proliferation (CCK-8); format: cell-based; details: 5 days incubation
Description: Capan-1 cells in a well-growing state were collected into a centrifuge tube, adjusted to a cell density of 1.5 × 10^4 cells/mL, and inoculated onto a 96-well plate (100 µL/well). […] Meanwhile, a control was set. After 5 days of incubation in the cell incubator, the assay reagent CCK-8 (manufacturer: Dojindo Laboratories, Beijing; 10 µL/well) was added. After 4 h of incubation in the cell incubator, the absorbance was measured at 450 nm on a PerkinElmer Envision microplate reader. A four-parameter analysis was performed, a dose-response curve was fitted, and IC50 was calculated.

Row | SMILES | IC50
1 | C#Cc1c(F)ccc2cccc(-c3nc4c5c(nc(OCC67CCCN6CC(F)C7)nc5c3F)N(C(C)c3cccnc3N)C(C)CO4)c12 (single isomer, unassigned) [Example 48] | < 100 nM
2 | CC(c1cccnc1N)N1c2nc(OC[C@@]34CCCN3C[C@H](F)C4)nc3c(F)c(-c4cc(N)cc(Cl)c4C(F)(F)F)nc(c23)OC[C@@H]1C (single isomer, unassigned) [Example 64] | < 100 nM
3 | C#Cc1c(F)ccc2cccc(-c3nc4c5c(nc(OC[C@@H]6CCCN6C)nc5c3F)N(C(C)c3cccnc3N)[C@@H](C)CO4)c12 (single isomer, unassigned) [Example 88] | < 100 nM
4 | C#Cc1c(F)ccc2cc(O)cc(-c3nc4c5c(nc(OC[C@@H]6C[C@@H](F)CN6C)nc5c3F)N(C(C)c3cccnc3N)[C@@H](C)CO4)c12 (single isomer, unassigned) [Example 147] | < 100 nM
5 | C#Cc1c(F)ccc2cc(O)cc(-c3nc4c5c(nc(OCC6(CN7CCOCC7)CC6)nc5c3F)N(C(C)c3cccnc3N)[C@@H](C)CO4)c12 (single isomer, unassigned) [Example 70] | < 100 nM
6 | C#Cc1c(F)ccc2cc(O)cc(-c3nc4c5c(nc(OC[C@@H]6COCCN6C)nc5c3F)N(C(C)c3cccnc3N)[C@@H](C)CO4)c12 (single isomer, unassigned) [Example 92] | < 100 nM
7 | C#Cc1cccc2cccc(-c3nc4c5c(nc(OC[C@@]67CCCN6C[C@H](F)C7)nc5c3F)N(C(C)c3cccnc3N)[C@@H](C)CO4)c12 (single isomer, unassigned) [Example 131] | < 100 nM

same assay, conditions: Homo sapiens, CAPAN-1, 120 h, 5 days incubation

Row | SMILES | IC50
8 | CC(c1cccnc1N)N1c2nc(OC[C@@]34CCCN3C[C@H](F)C4)nc3c(F)c(-c4ccccc4N(C)C)nc(c23)OC[C@@H]1C (single isomer, unassigned) [Example 57] | < 100 nM
9 | CC(c1cccnc1N)N1c2nc(OC[C@@H]3CCCN3C)nc3c(F)c(-c4ccc(F)c5sc(N)c(C#N)c45)nc(c23)OC[C@@H]1C (single isomer, unassigned) [Example 158] | < 100 nM
10 | C#Cc1c(F)ccc2cc(O)cc(-c3nc4c5c(nc(OC[C@@]67CCCN6C[C@H](F)C7)nc5c3F)N(C(C)c3cccnc3N)[C@H](C)CO4)c12 (stereo partly shown) [Example 41] | < 100 nM
11 | C#Cc1c(F)ccc2cc(O)cc(-c3nc4c5c(nc(OCC67CCCN6CC(F)C7)nc5c3F)N(C3CC3)C(C)CO4)c12 (single isomer, unassigned) [Example 45] | < 100 nM
12 | C#Cc1c(F)ccc2cc(O)cc(-c3nc4c5c(nc(OC[C@@H](C)OC)nc5c3F)N(C(C)c3cccnc3N)[C@@H](C)CO4)c12 (single isomer, unassigned) [Example 75] | < 100 nM
13 | C#Cc1c(F)ccc2cc(O)cc(-c3nc4c5c(nc(OC)nc5c3F)N(C(C)c3cccnc3N)[C@@H](C)CO4)c12 (single isomer, unassigned) [Example 65] | < 100 nM
14 | C#Cc1c(F)ccc2cc(O)cc(-c3nc4c5c(nc(OC[C@@]67CCCN6C[C@H](F)C7)nc5c3F)N(CC(F)F)C(C)CO4)c12 (stereo partly shown) [Example 50] | < 100 nM
15 | C#Cc1c(F)ccc2cc(O)cc(-c3nc4c5c(nc(OCCCN6CCN(C)CC6)nc5c3F)N(C(C)c3cccnc3N)[C@@H](C)CO4)c12 (single isomer, unassigned) [Example 170] | < 100 nM
16 | Cc1cccc(-c2nc3c4c(nc(OC[C@@]56CCCN5C[C@H](F)C6)nc4c2F)N(C(C)c2cccnc2N)[C@@H](C)CO3)c1N(C)C (single isomer, unassigned) [Example 128] | < 100 nM
17 | CC(c1cccnc1N)N1c2nc(OC[C@@]34CCCN3C[C@H](F)C4)nc3c(F)c(-c4cccc5ccc(F)c(F)c45)nc(c23)OC[C@@H]1C (single isomer, unassigned) [Example 120] | < 100 nM
18 | Cc1cccc(-c2nc3c4c(nc(OC[C@@H]5CCCN5C)nc4c2F)N(C(C)c2cccnc2N)[C@@H](C)CO3)c1C(F)(F)F (single isomer, unassigned) [Example 160] | < 100 nM
19 | CC(c1cccnc1N)N1c2nc(OC[C@@]34CCCN3C[C@H](F)C4)nc3c(F)c(-c4ccc(F)c5sc(N)c(C#N)c45)nc(c23)OC[C@@H]1C (stereo partly shown) [Example 81] | < 100 nM
20 | C#Cc1c(F)ccc2cc(O)cc(-c3nc4c5c(nc(OCCN6CCOCC6)nc5c3F)N(C(C)c3cccnc3N)[C@@H](C)CO4)c12 (single isomer, unassigned) [Example 136] | < 100 nM
21 | C#Cc1c(F)ccc2cc(O)cc(-c3nc4c5c(nc(OCCCN6CCCC6)nc5c3F)N(C(C)c3cccnc3N)[C@@H](C)CO4)c12 (single isomer, unassigned) [Example 132] | < 100 nM
22 | C#Cc1c(F)ccc2cc(O)cc(-c3nc4c5c(nc(OCC(C)CN(C)C)nc5c3F)N(C(C)c3cccnc3N)[C@@H](C)CO4)c12 (single isomer, unassigned) [Example 144] | < 100 nM
23 | CC(c1cccnc1N)N1c2nc(OC[C@@]34CCCN3C[C@H](F)C4)nc3c(F)c(-c4ccc(F)c5sc(N)nc45)nc(c23)OC[C@@H]1C (single isomer, unassigned) [Example 116] | < 100 nM
24 | C#Cc1c(F)ccc2cc(O)cc(-c3nc4c5c(nc(OCCN6CCN(C)CC6)nc5c3F)N(C(C)c3cccnc3N)[C@@H](C)CO4)c12 (single isomer, unassigned) [Example 168] | < 100 nM
25 | C#Cc1c(F)ccc2cc(O)cc(-c3nc4c5c(nc(OC[C@H](C)OC)nc5c3F)N(C(C)c3cccnc3N)[C@@H](C)CO4)c12 (single isomer, unassigned) [Example 73] | < 100 nM
26 | C#Cc1c(F)ccc2cc(O)cc(-c3nc4c5c(ncnc5c3F)N(C(C)c3cccnc3N)[C@@H](C)CO4)c12 (single isomer, unassigned) [Example 89] | < 100 nM
27 | C#Cc1c(F)ccc2cc(O)cc(-c3nc4c5c(nc(OC[C@@H]6COCCN6C)nc5c3F)N(C(C)c3cccnc3N)[C@@H](C)CO4)c12 (single isomer, unassigned) [Example 91] | < 100 nM
28 | C#Cc1c(F)ccc2cc(O)cc(-c3nc4c5c(nc(OCC6(N)CC6)nc5c3F)N(C(C)c3cccnc3N)[C@@H](C)CO4)c12 (single isomer, unassigned) [Example 99] | < 100 nM
29 | CC(c1cccnc1N)N1c2nc(OC[C@@]34CCCN3C[C@H](F)C4)nc3c(F)c(-c4ccc(F)c5sc(N)c(C#N)c45)nc(c23)OC[C@@H]1C (single isomer, unassigned) [Example 82] | < 100 nM
30 | C#Cc1c(F)ccc2cc(O)cc(-c3nc4c5c(nc(OC[C@@H](C)N6CCC6)nc5c3F)N(C(C)c3cccnc3N)[C@@H](C)CO4)c12 (single isomer, unassigned) [Example 174] | < 100 nM
31 | C#Cc1c(F)ccc2cc(O)cc(-c3nc4c5c(nc(OC[C@@H]6CN(C)CCN6C)nc5c3F)N(C(C)c3cccnc3N)[C@@H](C)CO4)c12 (single isomer, unassigned) [Example 109] | < 100 nM
32 | Cc1cccc(-c2nc3c4c(nc(OCC56CCCN5CC(F)C6)nc4c2F)N(C(C)c2cccnc2N)C(C)CO3)c1C(F)(F)F (single isomer, unassigned) [Example 55] | < 100 nM
33 | C#Cc1c(F)ccc2cc(O)cc(-c3nc4c5c(nc(OCCN6CCCCC6)nc5c3F)N(C(C)c3cccnc3N)[C@@H](C)CO4)c12 (single isomer, unassigned) [Example 166] | < 100 nM
34 | CC(c1cccnc1N)N1c2nc(OC[C@@]34CCCN3C[C@H](F)C4)nc3c(F)c(-c4cccc(F)c4N(C)C)nc(c23)OC[C@@H]1C (single isomer, unassigned) [Example 126] | < 100 nM

Source: EP4570805A1, “TRICYCLIC COMPOUNDS AND MEDICAL USE THEREOF” (Chia Tai Tianqing Pharmaceutical Group Co., Ltd., priority 2022, dated 2024)
